Reference: publication PMC3315157 (Biochemistry, 2012)
Where “and” joins values, the source holds several entries; their conditions need not be identical. Equal values may be shown once. Read-outs that look alike come from different tables or passages of the source.

Legend:
[1] = target: T1, Torpedo nAChR (Tetronarce californica, UniProt P02710+P02712+P02714+P02718); assay: [125I]-SADU-3-72 competition binding assay
[2] = test system: α1β1εδ (adult mouse muscle-type) nAChRs; conditions: read-out: IC50, impaired channel opening; binding to the resting nAChR; HEK-293 cells; cited from earlier work
[3] = target: T1, Torpedo nAChR; assay type: cell-based
[4] = target: T1, Torpedo nAChR; assay: biochemical; assay type: binding; conditions: for reduction of agonist-enhanced [125I]SADU-3-72 photolabeling within αV8-20K: 130 μM bupropion (separate experiment) or TCP
[5] = desensitized state (Carb), TCP 130 μM, native nAChR-rich membranes, n=1
[6] = resting state (+α-BgTx), tetracaine 130 μM, native nAChR-rich membranes, n=1

T1 sequence (P02710 25-461): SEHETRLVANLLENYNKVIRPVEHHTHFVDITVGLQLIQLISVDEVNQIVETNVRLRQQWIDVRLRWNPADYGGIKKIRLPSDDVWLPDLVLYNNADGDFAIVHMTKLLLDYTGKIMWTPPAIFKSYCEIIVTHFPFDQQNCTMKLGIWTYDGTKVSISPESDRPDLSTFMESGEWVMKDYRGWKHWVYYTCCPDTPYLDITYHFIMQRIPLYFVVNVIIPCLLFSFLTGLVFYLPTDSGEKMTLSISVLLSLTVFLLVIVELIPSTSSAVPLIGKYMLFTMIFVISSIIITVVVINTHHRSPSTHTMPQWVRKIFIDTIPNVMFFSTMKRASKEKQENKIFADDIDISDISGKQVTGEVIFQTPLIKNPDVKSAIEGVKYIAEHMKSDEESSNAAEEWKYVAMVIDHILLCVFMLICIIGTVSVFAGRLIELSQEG
T1 sequence (P02712 25-493): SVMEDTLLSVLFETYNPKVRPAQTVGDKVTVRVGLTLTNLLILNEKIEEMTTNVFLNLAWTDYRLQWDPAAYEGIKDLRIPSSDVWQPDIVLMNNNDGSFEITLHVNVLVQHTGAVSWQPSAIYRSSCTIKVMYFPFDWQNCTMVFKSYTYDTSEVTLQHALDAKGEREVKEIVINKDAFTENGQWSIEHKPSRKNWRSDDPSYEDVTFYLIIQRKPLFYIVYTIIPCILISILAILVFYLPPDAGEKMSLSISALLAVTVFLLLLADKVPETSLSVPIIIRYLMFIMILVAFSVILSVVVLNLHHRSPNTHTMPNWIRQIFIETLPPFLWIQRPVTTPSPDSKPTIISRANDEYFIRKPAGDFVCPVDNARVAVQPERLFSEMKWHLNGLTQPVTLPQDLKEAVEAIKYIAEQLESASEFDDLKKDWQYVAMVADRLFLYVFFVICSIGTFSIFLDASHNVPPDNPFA
T1 sequence (P02714 18-506): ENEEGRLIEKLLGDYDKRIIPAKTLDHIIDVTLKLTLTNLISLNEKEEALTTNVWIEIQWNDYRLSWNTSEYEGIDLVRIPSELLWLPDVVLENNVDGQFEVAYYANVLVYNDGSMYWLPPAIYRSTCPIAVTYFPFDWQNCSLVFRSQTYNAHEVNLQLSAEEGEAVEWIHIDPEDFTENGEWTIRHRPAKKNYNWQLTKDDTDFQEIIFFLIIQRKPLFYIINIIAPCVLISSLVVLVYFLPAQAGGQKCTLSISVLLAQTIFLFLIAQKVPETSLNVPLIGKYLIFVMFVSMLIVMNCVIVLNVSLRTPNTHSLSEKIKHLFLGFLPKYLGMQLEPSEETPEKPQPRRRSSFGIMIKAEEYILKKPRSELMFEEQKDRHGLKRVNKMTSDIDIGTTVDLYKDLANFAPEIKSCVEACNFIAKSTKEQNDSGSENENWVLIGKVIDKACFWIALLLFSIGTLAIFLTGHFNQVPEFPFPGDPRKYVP
T1 sequence (P02718 22-522): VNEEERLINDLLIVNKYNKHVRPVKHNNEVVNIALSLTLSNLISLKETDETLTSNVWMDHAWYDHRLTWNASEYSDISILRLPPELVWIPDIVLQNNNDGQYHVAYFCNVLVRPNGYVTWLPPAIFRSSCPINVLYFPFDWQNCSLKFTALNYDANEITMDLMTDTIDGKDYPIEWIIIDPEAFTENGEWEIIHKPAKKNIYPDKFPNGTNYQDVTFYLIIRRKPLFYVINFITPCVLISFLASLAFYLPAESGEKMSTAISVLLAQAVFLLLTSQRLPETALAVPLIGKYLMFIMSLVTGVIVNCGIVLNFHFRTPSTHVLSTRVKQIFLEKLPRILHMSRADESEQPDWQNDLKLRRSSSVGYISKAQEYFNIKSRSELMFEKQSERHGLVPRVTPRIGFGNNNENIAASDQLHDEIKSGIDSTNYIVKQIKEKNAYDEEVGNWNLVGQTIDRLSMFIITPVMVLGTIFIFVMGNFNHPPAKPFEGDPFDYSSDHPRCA

## CC(NC(C)(C)C)C(=O)c1ccc(N=[N+]=[N-])c(I)c1 (racemic) [SADU-3-72, (±)-2-(N-tert-butylamino)-3′-[^125I]-iodo-4′-azidopropiophenone]
[1]; read-out: IC50, inhibition of [125I]SADU-3-72 binding, affinity-purified, lipid-reconstituted nAChR, absence of Carb (resting state)
  IC50: 2300 ± 700 nM

## CC(NC(C)(C)C)C(=O)c1cccc(Cl)c1 (racemic) [bupropion, (±)-2-(tert-butylamino)-1-(3-chlorophenyl) propan-1-one]
[1]; IC50, inhibition of [125I]SADU-3-72 binding, native nAChR-rich membranes, desensitized state (400 μM Carb)
  IC50: 1200 nM and 1000 nM
[1]; from inhibition of [125I]SADU-3-72 binding / photoincorporation
  fold higher affinity in the desensitized than in the resting state: three-fold
[2]
  IC50: 400 nM
[3]
  IC50: 340 nM and 300 nM
[3]; co-applied with 50 μM ACh, n=7 oocytes
  Hill coefficient nH of inhibition of ACh-induced currents: 0.98 ± 0.14
[4]; IC50, inhibition of δ subunit [125I]SADU-3-72 photolabeling, presence of Carb (desensitized state)
  IC50: 2100 nM and 2000 nM
[4]; desensitized state (Carb)
  reduction of agonist-enhanced [125I]SADU-3-72 photolabeling within αV8-20K: 70%

## CC(=O)OCC[N+](C)(C)C [ACh, Acetylcholine]
[3]; n=1
  Hill coefficient nH, ACh dose-response curve: 1.5

## c1csc(C2(N3CCCCC3)CCCCC2)c1 [TCP, 1-(1-(2-Thienyl)cyclohexyl) piperidine (tenocyclidine)]
[4]; desensitized state (400 μM Carb), 130 μM TCP, preparative photolabeling
  effect on [125I]SADU-3-72 labeling of δLeu265 (M2-9): eliminated
[4]; desensitized state (Carb)
  reduction of agonist-enhanced [125I]SADU-3-72 photolabeling within αV8-20K: not inhibited
[4]; [5]
  effect on [125I]SADU-3-72 β subunit labeling: unchanged
  increase of [125I]SADU-3-72 photolabeling in α-subunit: ~ 15%
[4]; desensitized state (Carb), TCP (140 μM in Figure 5 legend)
  effect on [125I]SADU-3-72 labeling in βV8-22/23K, γV8-24K and δV8-14K fragments: further inhibited labeling
[4]; read-out: inhibition of [125I]SADU-3-72 photolabeling in γ-subunit
  inhibition at 130 µM: ~35%
[4]; read-out: inhibition of [125I]SADU-3-72 photolabeling in δ-subunit
  inhibition at 130 µM: ~35%

## CCCCNc1ccc(C(=O)OCCN(C)C)cc1 [tetracaine]
[4]; read-out: inhibition of [125I]SADU-3-72 labeling within αV8-20K fragment
  inhibition at 130 µM: 49%
[4]; read-out: inhibition of [125I]SADU-3-72 labeling within βV8-22/23K fragment
  inhibition at 130 µM: 76%
[4]; read-out: inhibition of [125I]SADU-3-72 labeling within γV8-24K fragment
  inhibition at 130 µM: 79%
[4]; read-out: inhibition of [125I]SADU-3-72 labeling within δV8-14K fragment
  inhibition at 130 µM: 88%
[4]; [6]
  reduction of [125I]SADU-3-72 photolabeling in α-subunit: < 5%
  reduction of [125I]SADU-3-72 photolabeling in β-subunit: 55%
  reduction of [125I]SADU-3-72 photolabeling in γ-subunit: 51%
  reduction of [125I]SADU-3-72 photolabeling in δ-subunit: 73%
[4]; resting state, αV8-20, βV8-22, γV8-24 and δV8-14
  inhibition of [125I]-SADU-3-72 photoincorporation within subunit fragments containing the M2 segments: 50–90%
